From patent publication US20240317708A1, “INHIBITORS OF TRANSGLUTAMINASES” (ZEDIRA GMBH, priority 2021, published 2024)

Tests used:
[1] = target: T1, recombinant human transglutaminase 2 (Homo sapiens, UniProt P21980); test: Transglutaminase assay (dansylcadaverine incorporation into dimethylcasein, DCC-assay); type: biochemical; conditions: recombinant human TG2 10 nM, dansylcadaverine/dimethylcasein, 37° C.
T1 construct: purchased Zedira T022
T1 sequence (P21980 1-687): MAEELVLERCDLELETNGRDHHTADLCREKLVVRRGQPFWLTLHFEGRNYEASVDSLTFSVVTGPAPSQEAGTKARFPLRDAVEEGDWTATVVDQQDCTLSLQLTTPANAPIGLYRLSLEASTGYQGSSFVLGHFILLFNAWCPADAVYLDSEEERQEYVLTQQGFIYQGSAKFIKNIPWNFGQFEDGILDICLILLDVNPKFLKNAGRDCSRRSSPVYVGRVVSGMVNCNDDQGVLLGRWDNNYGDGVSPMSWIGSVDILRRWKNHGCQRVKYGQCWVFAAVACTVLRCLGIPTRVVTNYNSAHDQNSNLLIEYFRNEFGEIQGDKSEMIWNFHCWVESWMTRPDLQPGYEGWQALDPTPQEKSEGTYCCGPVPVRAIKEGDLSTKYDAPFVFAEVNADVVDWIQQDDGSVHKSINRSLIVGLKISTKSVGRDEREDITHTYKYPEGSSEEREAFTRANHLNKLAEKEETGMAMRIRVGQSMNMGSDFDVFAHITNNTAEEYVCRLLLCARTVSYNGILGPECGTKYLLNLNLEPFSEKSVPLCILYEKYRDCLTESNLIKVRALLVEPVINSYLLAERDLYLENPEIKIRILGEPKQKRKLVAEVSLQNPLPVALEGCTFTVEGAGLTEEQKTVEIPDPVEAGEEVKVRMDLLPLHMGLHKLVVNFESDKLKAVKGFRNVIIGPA
Method in brief: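 IC50 derived from fluorescence slope between 20 and 30 min (λex 330 nm, λem 500 nm, 37 °C), expressed relative to a 2% DMSO control. Reaction: 10 nM recombinant human TG2, 4 μM dimethylcasein, 16.7 μM dansylcadaverine, 10 mM CaCl2 and glutathione, pH 8.0.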

[2] = Log D shake flask method (octanol / PBS pH 7.4, HPLC); type: physicochemical; conditions: octanol/phosphate-buffered saline (PBS); octanol / PBS pH 7.4, shake flask
Protocol: In order to classify the inventive compounds according to their lipophilicity, Log D values (distribution coefficient) were determined by means of the well-established shake flask method, measuring the partition of a compound between an octanol and phosphate-buffered saline (PBS, pH 7.4) by HPLC.

[3] = Caco-2 permeability assay (CacoReady kit); type: in vitro ADME; conditions: human
Method in brief: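 Intestinal permeability modelled with kit-supplied Caco-2 barriers, run as the maker specifies; each compound reported as Papp.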

COC(=O)/C=C/CC[C@H](NC(=O)c1cc(Cl)sc1Cl)C(=O)Nc1cccn(CC(=O)NC23CC4(C)CC(C)(CC(C)(C4)C2)C3)c1=O [III-94, (S,E)-methyl 6-(2,5-dichlorothiophene-3-carboxamido)-7-(1-(2-(3,5,7-trimethyl-1-adamantylamino)-2-oxoethyl)-2-oxo-1,2-dihydropyridin-3-ylamino)-7-oxohept-2-enoate]
IC50 [1]: < 0.025 µM
logD [2]: 3 to 5
Papp [3]: 1 to 10 ×10⁻⁶ cm/s

CC(C)NC(=O)/C=C/CC[C@H](NC(=O)c1c[nH]c2ccccc12)C(=O)Nc1cccn(CC(=O)NC23CC(C2)C3)c1=O [III-140, (S,E)-N7-(1-(2-(bicyclo[1.1.1]pentan-1-ylamino)-2-oxoethyl)-2-oxo-1,2-dihydropyridin-3-yl)-6-(1H-indole-3-carboxamido)-N1-isopropylhept-2-enediamide]
IC50 [1]: 0.025 to 0.25 µM
logD [2]: < 1
Papp [3]: 1 to 10 ×10⁻⁶ cm/s

COC(=O)/C=C/CC[C@H](NC(=O)c1oc2ccccc2c1C)C(=O)Nc1cccn(CC(=O)NC2C3CC4CC2CC(O)(C4)C3)c1=O (stereo partly drawn) [III-38, (S,E)-methyl 7-(1-(2-(5-hydroxyadamantan-2-amino)-2-oxoethyl)-2-oxo-1,2-dihydropyridin-3-ylamino)-6-(3-methylbenzofuran-2-carboxamido)-7-oxohept-2-enoate]
IC50 [1]: 0.025 to 0.25 µM
logD [2]: 1 to 3
Papp [3]: < 1 ×10⁻⁶ cm/s

COC(=O)/C=C/CC[C@H](NC(=O)c1cncn1C)C(=O)Nc1cccn(CC(=O)N[C@@H]2C[C@@H]3CC[C@H]2C3)c1=O [III-58, (S,E)-methyl 7-(1-(2-((1S,2R,4R)-bicyclo[2.2.1]heptan-2-ylamino)-2-oxoethyl)-2-oxo-1,2-dihydropyridin-3-ylamino)-6-(1-methyl-1H-imidazole-5-carboxamido)-7-oxohept-2-enoate]
IC50 [1]: < 0.025 µM
logD [2]: 1 to 3
Papp [3]: < 1 ×10⁻⁶ cm/s

COC(=O)/C=C/CC[C@H](NC(=O)c1ccnn1C)C(=O)Nc1cccn(CC(=O)N[C@H]2C[C@H]3CC[C@]2(C)C3(C)C)c1=O [III-122, (S,E)-methyl 6-(1-methyl-1H-pyrazole-5-carboxamido)-7-oxo-7-(2-oxo-1-(2-oxo-2-((1R,2S,4R)-1,7,7-trimethylbicyclo[2.2.1]heptan-2-ylamino)ethyl)-1,2-dihydropyridin-3-ylamino)hept-2-enoate]
IC50 [1]: 0.025 to 0.25 µM
logD [2]: 1 to 3
Papp [3]: < 1 ×10⁻⁶ cm/s

COC(=O)/C=C/CC[C@H](NC(=O)c1cncn1C)C(=O)Nc1cccn(CC(=O)NC23CC4CC(C)(CC(C)(C4)C2)C3)c1=O [III-88, (S,E)-methyl 7-(1-(2-(3,5-dimethyladamantane)-2-oxoethyl)-2-oxo-1,2-dihydropyridin-3-ylamino)-6-(1-methyl-1H-imidazole-5-carboxamido)-7-oxohept-2-enoate]
IC50 [1]: < 0.025 µM
logD [2]: 1 to 3
Papp [3]: < 1 ×10⁻⁶ cm/s

CCN(CC)C(=O)/C=C/CC[C@H](NC(=O)c1coc(C(C)=O)n1)C(=O)Nc1cccn(CC(=O)NC23CC(C2)C3)c1=O [III-138, (S,E)-6-(2-acetyloxazole-4-carboxamido)-N7-(1-(2-(bicyclo[1.1.1]pentan-1-ylamino)-2-oxoethyl)-2-oxo-1,2-dihydropyridin-3-yl)-N1,N1-diethylhept-2-enediamide]
IC50 [1]: 0.25 to 1.5 µM
logD [2]: < 1
Papp [3]: < 1 ×10⁻⁶ cm/s

COC(=O)/C=C/CC[C@H](NC(=O)c1oc2ccccc2c1Cl)C(=O)Nc1cccn(CC(=O)NC2C3CC4CC(C3)CC2C4)c1=O (stereo partly drawn) [III-3, (S,E)-methyl 6-(3-chlorobenzofuran-2-carboxamido)-7-(1-(2-(2-adamantylamino)-2-oxoethyl)-2-oxo-1,2-dihydropyridin-3-ylamino)-7-oxohept-2-enoate]
IC50 [1]: < 0.025 µM
logD [2]: 3 to 5
Papp [3]: 1 to 10 ×10⁻⁶ cm/s

COC(=O)/C=C/CC[C@H](NC(=O)c1oc2ccccc2c1C)C(=O)Nc1cccn(CC23CC4CC(CC(Br)(C4)C2)C3)c1=O [III-81, (6S, E)-methyl 7-(1-((3-bromo-1-adamantyl)methyl)-2-oxo-1,2-dihydropyridin-3-ylamino)-6-(3-methylbenzofuran-2-carboxamido)-7-oxohept-2-enoate]
IC50 [1]: 0.25 to 1.5 µM
logD [2]: 3 to 5
Papp [3]: 1 to 10 ×10⁻⁶ cm/s
